The assay concerns the target T1, Na+, K+-ATPase (Sus scrofa, UniProt P05024).
T1 construct: gene ATP1A1; purified from pig kidney outer medulla
Nature of the assay: Na+,K+-ATPase activity inhibition, enzyme purified from pig kidney (Figure S4). In kind it is biochemical.

As for `CC(C)CCn1[se]c2ccccc2c1=O` [N-3mb-bs, N-3-methylbutyl-benzisoselenazol-3(2H)-one], the “Na+,K+-ATPase activity inhibition, enzyme purified from pig kidney (Figure S4)” value is “both N-allyl-bs and N-3mb-bs showed Na^+, K^+-ATPase inhibitory activity (purified from pig kidney outer medulla)”. Take `C=CCn1[se]c2ccccc2c1=O` [N-allyl-bs, N-allyl-benzisoselenazol-3(2H)-one]: the “Na+,K+-ATPase activity inhibition, enzyme purified from pig kidney (Figure S4)” value is “both N-allyl-bs and N-3mb-bs showed Na^+, K^+-ATPase inhibitory activity (purified from pig kidney outer medulla)”.

(Values after article PMC10969377, “N-3-Methylbutyl-benzisoselenazol-3(2H)-one Exerts Antifungal Activity In Vitro and in a Mouse Model of Vulvovaginal Candidiasis” (Current Issues in Molecular Biology, 2024).)
